Results as given in patent publication US12384758B2, “Crystalline form of LNP023” (Novartis AG, priority 2020, dated 2025).

Assay: Dynamic vapor sorption (DVS) isotherms, 0 to 95% relative humidity
Format: physicochemical
Conditions: 25±1.0° C.
Method: Dynamic vapor sorption isotherms were recorded with a DVS Advantage instrument. The measurement cycle was started at ambient relative humidity (RH) of 40%. RH was then decreased to 0% in 10% steps. […] 5% steps. Finally, RH was increased to ambient relative humidity of 40% in 10% steps. The time per step was set to a minimum of 3 hours and a maximum of 6 hours. If an equilibrium condition with a constant mass change of 0.002%/min for a minimum of 5 min was reached before the maximum time for all examined samples the sequential humidity step was applied before the maximum time of 6 hours. If no equilibrium was achieved the consecutive humidity step was applied after the maximum time of 6 hours. The temperature was 25±1.0° C.
Therefore, Form HB of LNP023 hydrochloride described herein can be assigned as being non-hygroscopic.

CCO[C@H]1CCN(Cc2c(OC)cc(C)c3[nH]ccc23)[C@H](c2ccc(C(=O)O)cc2)C1.Cl [Form HB of LNP023 hydrochloride, 4-((2S,4S)-(4-ethoxy-1-((5-methoxy-7-methyl-1H-indol-4-yl)methyl)piperidin-2-yl))benzoic acid hydrochloride]
hysteresis between the sorption and desorption curve (DVS sorption 0% to 95% RH, desorption 95 to 0% RH): no significant hysteresis
mass difference between 40 and 95% RH (DVS equilibrium mass change) (DVS, reference weight at 0% RH): less than 0.2 weight %
PXRD after the DVS experiment (physical stability of the form) (after DVS cycle 0 to 95% RH): remains unchanged
hygroscopicity assignment (from DVS, non-hygroscopic defined in b47 as mass increase of less than 0.2% at 80% RH at 25° C.): non-hygroscopic
